Experimental data reported in ChEMBL document CHEMBL1201862, “PubChem BioAssay data set” (2004).
Active and inactive are the calls of the source.

What was measured:
cells [1] = format: functional, cell-based
[2] = molecular target: Induced myeloid leukemia cell differentiation protein Mcl-1 (Homo sapiens, UniProt Q07820); format: functional
cells [3] = format: functional, cell-based; remark: listed apart in the source
[4] = molecular target: T1, Trace amine-associated receptor 1 (Homo sapiens, UniProt Q96RJ0); assay: Fluorescence-based cell-based high throughput dose response assay to identify agonists of the human trace amine associated receptor 1 (TAAR1).; format: functional
T1 sequence (Q96RJ0 whole entry): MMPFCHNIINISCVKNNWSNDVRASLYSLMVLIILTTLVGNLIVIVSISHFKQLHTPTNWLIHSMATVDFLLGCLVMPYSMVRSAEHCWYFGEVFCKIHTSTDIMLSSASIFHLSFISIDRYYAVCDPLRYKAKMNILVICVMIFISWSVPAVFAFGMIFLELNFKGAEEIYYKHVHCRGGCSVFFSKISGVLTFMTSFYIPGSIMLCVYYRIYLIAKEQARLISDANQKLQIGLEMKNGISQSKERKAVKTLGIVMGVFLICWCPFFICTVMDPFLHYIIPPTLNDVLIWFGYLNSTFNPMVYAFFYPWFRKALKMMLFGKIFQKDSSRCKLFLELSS

[5] = molecular target: T1, Trace amine-associated receptor 1; assay: Counterscreen for agonists of the human trace amine associated receptor 1 (hTAAR1): Fluorescence-based cell-based high throughput dose response assay to identify hTAAR1 agonist that also desensitize TAAR1 receptor response.; format: functional
[6] = bead-based luminescence quenchers, dual-tagged ARNT – biochemical, AlphaScreen, cherry-pick, artefact control for ARNT-TACC3 interaction inhibitor project, dose response (AID 651705); format: functional;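 further: AlphaScreen bead proximity signal that flags compounds interfering with the detection technology; potency reflects signal decrease which marks the compound as an assay artifact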
cells [7] = format: functional
Nonstructural protein 1 = Nonstructural protein 1 (Influenza A virus, UniProt Q194T2); format: functional, Influenza A virus (A/California/07/2009(H1N1))
Beta-galactosidase = Beta-galactosidase (Escherichia coli, UniProt Q8VNN2); assay: Dose response counterscreen for EBI2 assay utilizing the enzyme, b-galactosidase.; format: functional
[8] = molecular target: T2, Sentrin-specific protease 6 (Homo sapiens, UniProt Q9GZR1); assay: SAR Analysis of small molecule inhibitors of Sentrin-specific protease 6 (SENP6) using a Luminescent assay. [Related pubchem assays (depositor defined):AID2582, AID2599]; format: functional
T2 sequence (Q9GZR1 whole entry): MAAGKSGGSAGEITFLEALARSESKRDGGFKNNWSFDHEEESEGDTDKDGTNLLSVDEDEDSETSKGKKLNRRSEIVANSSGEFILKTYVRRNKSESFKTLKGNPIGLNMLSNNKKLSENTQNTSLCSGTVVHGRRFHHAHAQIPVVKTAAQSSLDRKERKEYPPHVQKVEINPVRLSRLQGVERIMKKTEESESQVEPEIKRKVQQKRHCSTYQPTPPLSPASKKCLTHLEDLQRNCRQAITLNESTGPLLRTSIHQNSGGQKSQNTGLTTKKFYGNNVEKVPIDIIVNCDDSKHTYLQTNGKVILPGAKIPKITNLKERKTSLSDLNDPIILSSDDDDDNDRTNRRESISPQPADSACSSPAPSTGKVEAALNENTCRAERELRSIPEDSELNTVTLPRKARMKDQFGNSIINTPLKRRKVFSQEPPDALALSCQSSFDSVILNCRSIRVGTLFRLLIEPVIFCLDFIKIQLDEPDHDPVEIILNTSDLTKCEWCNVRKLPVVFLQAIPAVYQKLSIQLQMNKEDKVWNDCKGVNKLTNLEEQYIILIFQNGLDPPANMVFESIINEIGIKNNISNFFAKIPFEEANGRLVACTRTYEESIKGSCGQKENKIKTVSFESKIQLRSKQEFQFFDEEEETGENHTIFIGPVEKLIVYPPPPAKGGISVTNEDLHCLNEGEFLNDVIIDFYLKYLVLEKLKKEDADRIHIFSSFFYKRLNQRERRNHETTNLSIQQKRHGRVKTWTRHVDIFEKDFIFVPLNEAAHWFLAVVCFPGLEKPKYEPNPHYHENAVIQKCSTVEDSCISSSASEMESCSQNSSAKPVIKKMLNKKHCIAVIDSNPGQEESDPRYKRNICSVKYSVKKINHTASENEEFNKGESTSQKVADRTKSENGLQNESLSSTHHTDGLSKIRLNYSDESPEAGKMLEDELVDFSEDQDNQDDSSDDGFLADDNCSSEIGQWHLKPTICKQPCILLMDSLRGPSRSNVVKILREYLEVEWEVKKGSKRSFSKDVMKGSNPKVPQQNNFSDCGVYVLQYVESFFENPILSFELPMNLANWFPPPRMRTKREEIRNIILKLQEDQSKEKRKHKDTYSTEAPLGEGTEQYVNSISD

Caspase-3 [9] = molecular target: T3, Caspase-3 (Homo sapiens, UniProt P42574); format: functional
T3 sequence (P42574 whole entry): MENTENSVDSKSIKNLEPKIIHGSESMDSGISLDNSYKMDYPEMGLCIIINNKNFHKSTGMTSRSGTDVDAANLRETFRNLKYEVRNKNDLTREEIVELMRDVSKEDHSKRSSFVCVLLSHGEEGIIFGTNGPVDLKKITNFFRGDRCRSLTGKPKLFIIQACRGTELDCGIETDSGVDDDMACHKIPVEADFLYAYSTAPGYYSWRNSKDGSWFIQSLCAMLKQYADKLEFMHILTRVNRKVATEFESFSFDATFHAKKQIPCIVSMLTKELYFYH

Caspase-3 [10] = molecular target: T3, Caspase-3; assay: SAR Analysis of small molecule inhibitors of Sentrin-specific proteases (SENPs) using a Caspase-3 Selectivity assay. [Related pubchem assays (depositor defined):AID2540, AID2599, AID434973, AID489001]; format: functional
Phospholipase A2 = Phospholipase A2 (Homo sapiens, UniProt P04054); format: functional;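 further: confirmatory dose-response counterscreen on phospholipase A2, testing hits that came from an ultra-high-throughput screen for ATG4B inhibitors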
[11] = molecular target: T4, Sentrin-specific protease 8 (Homo sapiens, UniProt Q96LD8); assay: inhibition of human SENP8 cleavage activity – biochemical, luminescence, SAR follow-up (AID 504501); format: functional
T4 sequence (Q96LD8 whole entry): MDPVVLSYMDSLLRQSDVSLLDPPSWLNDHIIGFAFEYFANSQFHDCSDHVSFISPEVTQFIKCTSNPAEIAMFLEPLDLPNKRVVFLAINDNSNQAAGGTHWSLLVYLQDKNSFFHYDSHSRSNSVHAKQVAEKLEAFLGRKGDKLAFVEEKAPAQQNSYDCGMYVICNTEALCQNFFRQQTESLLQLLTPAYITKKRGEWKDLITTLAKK

[12] = molecular target: T5, Sentrin-specific protease 7 (Homo sapiens, UniProt Q9BQF6); format: functional;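 further: Luminescence-based dose-response confirmation of ultra-high-throughput screening hits, measuring inhibition of SENP7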
T5 sequence (Q9BQF6 whole entry): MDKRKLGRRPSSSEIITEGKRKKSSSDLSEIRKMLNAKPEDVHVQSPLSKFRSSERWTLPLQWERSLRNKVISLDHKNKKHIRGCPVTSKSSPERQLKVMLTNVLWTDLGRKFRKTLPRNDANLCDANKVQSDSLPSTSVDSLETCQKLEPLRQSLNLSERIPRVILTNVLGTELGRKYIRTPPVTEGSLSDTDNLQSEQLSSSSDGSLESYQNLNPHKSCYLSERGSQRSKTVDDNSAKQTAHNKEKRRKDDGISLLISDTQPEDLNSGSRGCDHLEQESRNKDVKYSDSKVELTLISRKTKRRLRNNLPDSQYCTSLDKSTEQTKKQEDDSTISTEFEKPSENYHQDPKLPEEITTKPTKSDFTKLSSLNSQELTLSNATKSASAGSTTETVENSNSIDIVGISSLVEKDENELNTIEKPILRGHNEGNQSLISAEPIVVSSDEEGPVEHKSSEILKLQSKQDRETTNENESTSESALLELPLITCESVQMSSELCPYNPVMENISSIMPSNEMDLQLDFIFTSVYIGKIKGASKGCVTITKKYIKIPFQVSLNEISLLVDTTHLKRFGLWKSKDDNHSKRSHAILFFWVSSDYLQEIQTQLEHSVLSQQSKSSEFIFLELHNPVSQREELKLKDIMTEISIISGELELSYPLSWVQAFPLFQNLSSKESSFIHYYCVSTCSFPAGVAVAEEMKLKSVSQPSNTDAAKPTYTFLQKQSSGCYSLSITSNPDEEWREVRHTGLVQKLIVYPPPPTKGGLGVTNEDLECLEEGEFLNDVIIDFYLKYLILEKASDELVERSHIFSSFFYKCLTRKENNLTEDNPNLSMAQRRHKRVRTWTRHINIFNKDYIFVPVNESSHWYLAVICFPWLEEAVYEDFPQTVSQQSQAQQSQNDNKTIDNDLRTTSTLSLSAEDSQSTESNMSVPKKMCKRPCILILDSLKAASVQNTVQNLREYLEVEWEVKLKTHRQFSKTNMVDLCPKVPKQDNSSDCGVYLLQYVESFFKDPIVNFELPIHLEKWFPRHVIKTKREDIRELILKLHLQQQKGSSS

[13] = molecular target: T5, Sentrin-specific protease 7; assay: inhibition of human SENP7 cleavage activity – biochemical, luminescence, SAR follow-up (AID 504497); format: functional
[14] = molecular target: T2, Sentrin-specific protease 6; format: functional
Cysteine protease ATG4B = molecular target: T6, Cysteine protease ATG4B (Homo sapiens, UniProt Q9Y4P1); format: functional;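 further: Fluorescence-based dose-response confirmation assay measuring inhibition of ATG4B activity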
T6 sequence (Q9Y4P1 whole entry): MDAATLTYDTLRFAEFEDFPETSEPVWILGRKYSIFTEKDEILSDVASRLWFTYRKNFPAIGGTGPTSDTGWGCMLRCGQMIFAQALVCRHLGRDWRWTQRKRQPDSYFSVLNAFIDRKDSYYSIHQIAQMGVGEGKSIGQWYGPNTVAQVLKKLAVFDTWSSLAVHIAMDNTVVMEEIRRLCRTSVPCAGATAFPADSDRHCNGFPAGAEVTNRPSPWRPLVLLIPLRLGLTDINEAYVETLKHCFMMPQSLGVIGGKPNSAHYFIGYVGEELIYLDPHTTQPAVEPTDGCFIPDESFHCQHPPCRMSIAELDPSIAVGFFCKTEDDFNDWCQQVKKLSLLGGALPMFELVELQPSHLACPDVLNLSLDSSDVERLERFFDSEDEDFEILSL

[15] = molecular target: T4, Sentrin-specific protease 8; format: functional
[16] = viability of uninfected HEp-2 cells – cell-based, HTS, cytotoxicity control for RSV inhibitor project, dose response (AID 2410); format: functional; settings: human respiratory syncytial virus
[17] = molecular target: T7, Fructose-bisphosphate aldolase (Mycobacterium tuberculosis, UniProt P9WQA3); assay: Fluorescence-based biochemical high throughput dose response assay for inhibitors of the fructose-bisphosphate aldolase (FBA) of M. tuberculosis.; format: functional
T7 sequence (P9WQA3 whole entry): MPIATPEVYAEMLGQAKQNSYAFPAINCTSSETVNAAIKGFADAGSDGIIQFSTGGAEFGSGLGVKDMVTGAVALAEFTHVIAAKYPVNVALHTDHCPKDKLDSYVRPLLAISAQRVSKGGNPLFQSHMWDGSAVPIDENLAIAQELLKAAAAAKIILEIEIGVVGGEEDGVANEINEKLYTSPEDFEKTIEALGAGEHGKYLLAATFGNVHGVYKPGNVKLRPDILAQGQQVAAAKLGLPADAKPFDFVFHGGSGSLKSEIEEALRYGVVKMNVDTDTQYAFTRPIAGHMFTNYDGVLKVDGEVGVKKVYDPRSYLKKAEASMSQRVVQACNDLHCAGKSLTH

Beta-galactosidase, sequence (Q8VNN2 whole entry): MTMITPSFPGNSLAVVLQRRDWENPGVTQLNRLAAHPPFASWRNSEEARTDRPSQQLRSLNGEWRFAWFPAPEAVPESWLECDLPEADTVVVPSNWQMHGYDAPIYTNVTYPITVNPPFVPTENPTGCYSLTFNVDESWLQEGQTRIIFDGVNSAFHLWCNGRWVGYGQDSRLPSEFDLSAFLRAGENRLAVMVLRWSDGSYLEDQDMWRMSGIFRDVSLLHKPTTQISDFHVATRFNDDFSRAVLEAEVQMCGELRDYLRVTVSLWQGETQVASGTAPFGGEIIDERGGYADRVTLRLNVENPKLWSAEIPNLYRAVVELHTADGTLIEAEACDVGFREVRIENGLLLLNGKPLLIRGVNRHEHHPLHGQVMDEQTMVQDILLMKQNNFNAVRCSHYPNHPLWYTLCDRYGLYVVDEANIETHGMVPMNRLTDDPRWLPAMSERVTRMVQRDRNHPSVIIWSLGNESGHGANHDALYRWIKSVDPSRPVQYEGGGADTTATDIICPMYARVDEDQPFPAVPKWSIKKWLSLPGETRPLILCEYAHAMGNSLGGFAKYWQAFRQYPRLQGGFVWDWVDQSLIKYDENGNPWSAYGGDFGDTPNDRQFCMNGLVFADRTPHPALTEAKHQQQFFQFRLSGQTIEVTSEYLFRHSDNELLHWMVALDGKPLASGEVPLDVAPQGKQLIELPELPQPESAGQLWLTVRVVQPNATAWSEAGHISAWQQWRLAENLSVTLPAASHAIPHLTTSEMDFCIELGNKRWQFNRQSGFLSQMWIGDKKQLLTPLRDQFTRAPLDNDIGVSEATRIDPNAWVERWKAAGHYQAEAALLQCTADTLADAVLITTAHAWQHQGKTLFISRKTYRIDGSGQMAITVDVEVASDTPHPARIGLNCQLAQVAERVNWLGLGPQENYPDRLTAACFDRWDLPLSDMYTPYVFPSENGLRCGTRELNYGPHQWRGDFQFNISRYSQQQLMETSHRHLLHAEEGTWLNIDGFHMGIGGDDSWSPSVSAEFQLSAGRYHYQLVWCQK
Induced myeloid leukemia cell differentiation protein Mcl-1, sequence (Q07820 whole entry): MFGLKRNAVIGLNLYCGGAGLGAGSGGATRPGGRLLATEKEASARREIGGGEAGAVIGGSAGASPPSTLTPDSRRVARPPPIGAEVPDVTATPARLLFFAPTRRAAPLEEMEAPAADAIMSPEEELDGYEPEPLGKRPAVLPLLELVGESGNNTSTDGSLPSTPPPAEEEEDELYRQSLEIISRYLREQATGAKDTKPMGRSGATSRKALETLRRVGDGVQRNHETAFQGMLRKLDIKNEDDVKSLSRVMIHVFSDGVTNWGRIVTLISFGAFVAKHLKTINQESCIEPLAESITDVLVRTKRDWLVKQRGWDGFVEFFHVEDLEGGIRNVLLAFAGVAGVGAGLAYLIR
Phospholipase A2, sequence (P04054 whole entry): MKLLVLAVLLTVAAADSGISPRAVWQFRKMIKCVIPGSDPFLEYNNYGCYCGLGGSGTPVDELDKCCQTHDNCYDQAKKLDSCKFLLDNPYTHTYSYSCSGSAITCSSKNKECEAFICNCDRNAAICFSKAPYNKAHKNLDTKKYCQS
Nonstructural protein 1, sequence (Q194T2 whole entry): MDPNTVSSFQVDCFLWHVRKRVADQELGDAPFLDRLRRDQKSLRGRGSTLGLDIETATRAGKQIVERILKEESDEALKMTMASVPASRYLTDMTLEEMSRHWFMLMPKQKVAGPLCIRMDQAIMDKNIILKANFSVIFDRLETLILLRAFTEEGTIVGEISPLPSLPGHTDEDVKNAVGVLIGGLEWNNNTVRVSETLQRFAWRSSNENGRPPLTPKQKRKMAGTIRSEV

## COc1cc(C(c2nnnn2C2CCCC2)N2CCc3ccccc3C2)ccc1O (stereo unspecified)
Cells [1]
  IC50: > 29.9 µM (inactive)
[2]
  IC50: 12.8 µM (active)
Cells [3]
  EC50: > 29.9 µM (inactive)
[4]
  EC50: 496 nM (active)
[5]
  IC50: 1.33 µM (active)

## COc1ccc(C(=O)Nc2nnc(C3=COCCO3)o2)cc1
[6]
  AC50: 107 µM (active)
Cells [7]
  IC50: 5.45 µM (active)

## c1ccc(CNCCN2CCNCC2)nc1
[6]
  AC50: 121 µM (active)
Nonstructural protein 1
  IC50: 7.87 µM (active)

## COc1cc(OC)c(C(=O)OCC(=O)Nc2nnc(-c3ccccc3)o2)cc1OC
[6]
  AC50: 112 µM (active)

## O=C(NCCc1ccccc1)c1ccc([N+](=O)[O-])cc1
Cells [1]
  IC50: > 29.9 µM (inactive)
Cells [3]
  EC50: > 29.9 µM (inactive)
[4]
  EC50: 2320 nM (active)
[5]
  IC50: 7.32 µM (active)

## O=C(c1cc2cc(Cl)ccc2[nH]1)N1CCN(c2ccccc2F)CC1
Beta-galactosidase
  IC50: > 80 µM (inactive)

## CC(C)(C)c1ccc2c(c1)C(=O)c1ccccc1C2=O
[8]
  IC50: 927 nM (active)
Caspase-3 [9]
  IC50: > 100 µM (inactive)
Caspase-3 [10]
  IC50: 934 nM (active)
Phospholipase A2
  IC50: 6.46 µM (active)
[11]
  IC50: 1.12 µM (active)
[12]
  IC50: > 100 µM (inactive)
[13]
  IC50: 635 nM (active)
[14]
  IC50: 4.05 µM (active)
Cysteine protease ATG4B
  IC50: 9.47 µM (active)
[15]
  IC50: > 100 µM (inactive)

## COc1ccc(C2=NN(C(=O)CSc3cn(C)c4ccccc34)C(c3ccc(OC)cc3)C2)cc1 (stereo unspecified)
Beta-galactosidase
  IC50: > 80 µM (inactive)
[16]
  CC50: 30.2 µM (active)

## Cc1cc(=O)oc2cc(OCC(=O)N3CCCC3)ccc12
[17]
  IC50: 2.54 µM (active)

## CC(Oc1ccc2c(c1)oc(=O)c1ccccc12)C(=O)NCCCN1CCOCC1 (stereo unspecified)
[17]
  IC50: 1.5 µM (active)

## N#Cc1c(O)ncc(/C=N/N=C/c2ccccc2)c1Nc1ccccc1
Beta-galactosidase
  IC50: > 80 µM (inactive)

## COc1ccc2cc(C(N)=O)/c(=N/c3ccccc3)oc2c1
[17]
  IC50: > 10 µM (inactive)
